The source of these data is US8178570B2, “Tie-2 modulators and methods of use” (Exelixis, Inc., priority 2003, dated 2012).

A value given as a limit tells only on which side of the number the result lay.

Sequence of Tie-2 (Q02763 23-1124): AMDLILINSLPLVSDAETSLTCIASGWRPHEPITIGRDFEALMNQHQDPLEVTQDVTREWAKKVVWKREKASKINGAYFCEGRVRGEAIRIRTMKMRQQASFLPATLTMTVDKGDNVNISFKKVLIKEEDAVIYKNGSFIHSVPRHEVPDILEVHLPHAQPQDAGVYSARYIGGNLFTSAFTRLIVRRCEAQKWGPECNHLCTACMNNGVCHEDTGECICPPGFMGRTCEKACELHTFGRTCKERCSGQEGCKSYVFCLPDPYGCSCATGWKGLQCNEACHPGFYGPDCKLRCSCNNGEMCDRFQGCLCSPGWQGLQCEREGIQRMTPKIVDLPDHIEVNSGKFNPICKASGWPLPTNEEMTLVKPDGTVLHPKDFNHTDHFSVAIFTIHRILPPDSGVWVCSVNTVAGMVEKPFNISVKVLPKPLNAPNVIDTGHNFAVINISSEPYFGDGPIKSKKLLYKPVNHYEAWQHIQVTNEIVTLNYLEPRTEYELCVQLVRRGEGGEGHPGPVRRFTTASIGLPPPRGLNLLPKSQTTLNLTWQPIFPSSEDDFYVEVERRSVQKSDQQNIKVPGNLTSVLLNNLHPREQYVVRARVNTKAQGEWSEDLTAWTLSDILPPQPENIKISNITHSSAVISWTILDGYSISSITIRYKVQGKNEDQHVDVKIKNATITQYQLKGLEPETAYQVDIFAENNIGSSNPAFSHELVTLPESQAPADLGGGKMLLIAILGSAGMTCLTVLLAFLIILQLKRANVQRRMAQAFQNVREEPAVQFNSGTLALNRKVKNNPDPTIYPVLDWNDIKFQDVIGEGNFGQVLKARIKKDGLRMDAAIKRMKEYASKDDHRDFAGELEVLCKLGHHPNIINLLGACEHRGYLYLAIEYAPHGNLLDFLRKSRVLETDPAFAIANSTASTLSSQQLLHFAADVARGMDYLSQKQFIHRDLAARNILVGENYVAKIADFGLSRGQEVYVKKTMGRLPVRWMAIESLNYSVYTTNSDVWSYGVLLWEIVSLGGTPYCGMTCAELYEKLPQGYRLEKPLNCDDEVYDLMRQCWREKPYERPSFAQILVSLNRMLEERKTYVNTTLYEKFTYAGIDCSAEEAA

This assay deals with Tie-2 (Homo sapiens, UniProt Q02763). The experiment in a line: Tie-2 tyrosine kinase activity: kinase-dependent ATP consumption (pEY substrate, luciferase/luciferin chemiluminescence) or 33P-ATP incorporation into substrate. Type of assay: biochemical. To be noted: Tie-2 (human enzyme) inhibition, Table 2, class symbols A-D. In outline:
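Tie-2 kinase activity is read either as ATP consumption with pEY substrate by luciferase/luciferin chemiluminescence, or as 33P incorporation from 33P-ATP into plate-adsorbed substrate by scintillation counting. IC50 values are binned as A <50 nM, B >50–1000 nM, C >1000–<10,000 nM, and D ≥10,000 nM.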
In the case of `COc1ccc(-c2nc(-c3ccncc3)nn2CCN(C(=O)Nc2cccc(C(F)(F)F)c2)C2CCCC2)cc1Cl` [Entry 155, N-(2-{5-[3-chloro-4-(methyloxy)phenyl]-3-pyridin-4-yl-1H-1,2,4-triazol-1-yl}ethyl)-N-cyclopentyl-N′-[3-(trifluoromethyl)phenyl]urea], the IC50 (usually the concentration at which inhibition is half-maximal) is at least 10000 nM.
The same measure for `C=CCNC(=O)N(CCn1nc(-c2ccncc2)nc1-c1ccc(OC)c(Cl)c1)C1CCCC1` [Entry 156, N-(2-{5-[3-chloro-4-(methyloxy)phenyl]-3-pyridin-4-yl-1H-1,2,4-triazol-1-yl}ethyl)-N-cyclopentyl-N′-prop-2-en-1-ylurea]: at least 10000 nM; for `COc1ccc(-c2nc(-c3ccncc3)nn2CCN(C(=O)Nc2ccccc2C(C)C)C2CCCC2)cc1Cl` [Entry 157, N-(2-{5-[3-chloro-4-(methyloxy)phenyl]-3-pyridin-4-yl-1H-1,2,4-triazol-1-yl}ethyl)-N-cyclopentyl-N′-[2-(1-methylethyl)phenyl]urea]: at least 10000 nM; for `COc1ccc(-c2nc(-c3ccncc3)nn2CCN(C(=O)Nc2cc(F)ccc2C)C2CCCC2)cc1Cl` [Entry 158, N-(2-{5-[3-chloro-4-(methyloxy)phenyl]-3-pyridin-4-yl-1H-1,2,4-triazol-1-yl}ethyl)-N-cyclopentyl-N′-(5-fluoro-2-methylphenyl)urea]: 1000 to 10000 nM.
The same measure for `COc1ccc(-c2nc(-c3ccncc3)nn2CCN(C(=O)Nc2ccc(F)c(F)c2)C2CCCC2)cc1Cl` [Entry 159, N-(2-{5-[3-chloro-4-(methyloxy)phenyl]-3-pyridin-4-yl-1H-1,2,4-triazol-1-yl}ethyl)-N-cyclopentyl-N′-(3,4-difluorophenyl)urea]: 1000 to 10000 nM; for `Cc1nc(-c2ccncc2)nn1CCN(CCN1CCOCC1)C(=O)Cc1cccc2ccccc12` [Entry 160, N-[2-(5-methyl-3-pyridin-4-yl-1H-1,2,4-triazol-1-yl)ethyl]-N-(2-morpholin-4-ylethyl)-2-naphthalen-1-ylacetamide]: at least 10000 nM; for `CNc1nccc(-c2nc(C)n(CCN(C(=O)Cc3cccc4ccccc34)C3CCCC3)n2)n1` [Entry 161, N-cyclopentyl-N-(2-{5-methyl-3-[2-(methylamino)pyrimidin-4-yl]-1H-1,2,4-triazol-1-yl}ethyl)-2-naphthalen-1-ylacetamide]: at least 10000 nM.
The same measure for `Cc1nc(-c2ccc3nsnc3c2)nn1CCN(C(=O)Cc1cccc2ccccc12)C1CCCC1` [Entry 162, N-{2-[3-(2,1,3-benzothiadiazol-5-yl)-5-methyl-1H-1,2,4-triazol-1-yl]ethyl}-N-cyclopentyl-2-naphthalen-1-ylacetamide]: 50 to 1000 nM; for `Cc1nc(-c2ccnc(N3CCOCC3)c2)nn1CCN(C(=O)Cc1cccc2ccccc12)C1CCCC1` [Entry 163, N-cyclopentyl-N-{2-[5-methyl-3-(2-morpholin-4-ylpyridin-4-yl)-1H-1,2,4-triazol-1-yl]ethyl}-2-naphthalen-1-ylacetamide]: 1000 to 10000 nM.
`Cc1nc(-c2ccnc(NCCN(C)C)c2)nn1CCN(C(=O)Cc1cccc2ccccc12)C1CCCC1` [Entry 164, N-cyclopentyl-N-{2-[3-(2-{[2-(dimethylamino)ethyl]amino}pyridin-4-yl)-5-methyl-1H-1,2,4-triazol-1-yl]ethyl}-2-naphthalen-1-ylacetamide] came in with an IC50 of 50 to 1000 nM.
The same measure for `Cc1nc(-c2ccnc(Nc3ccccc3)c2)nn1CCN(C(=O)Cc1cccc2ccccc12)C1CCCC1` [Entry 165, N-cyclopentyl-N-(2-{5-methyl-3-[2-(phenylamino)pyridin-4-yl]-1H-1,2,4-triazol-1-yl}ethyl)-2-naphthalen-1-ylacetamide]: 50 to 1000 nM; for `CCNc1cc(-c2nc(C)n(CCN(C(=O)Cc3cccc4ccccc34)C3CCCC3)n2)ccn1` [Entry 166, N-cyclopentyl-N-(2-{3-[2-(ethylamino)pyridin-4-yl]-5-methyl-1H-1,2,4-triazol-1-yl}ethyl)-2-naphthalen-1-ylacetamide]: below 50 nM.
As for `CNc1cc(-c2nc(C)n(CCN(C(=O)Cc3cccc4ccccc34)C3CCCC3)n2)ccn1` [Entry 167, N-cyclopentyl-N-(2-{5-methyl-3-[2-(methylamino)pyridin-4-yl]-1H-1,2,4-triazol-1-yl}ethyl)-2-naphthalen-1-ylacetamide], the figure is below 50 nM.
Compound `Cc1nc(-c2ccncc2)nn1CCN(C(=O)Cc1cccc2ccccc12)C1CC1` [Entry 168, N-cyclopropyl-N-[2-(5-methyl-3-pyridin-4-yl-1H-1,2,4-triazol-1-yl)ethyl]-2-naphthalen-1-ylacetamide] had an IC50 of 50 to 1000 nM.
As for `Cc1nc(-c2ccncc2)nn1CCN(CCN1CCCC1)C(=O)Cc1cccc2ccccc12` [Entry 169, N-[2-(5-methyl-3-pyridin-4-yl-1H-1,2,4-triazol-1-yl)ethyl]-2-naphthalen-1-yl-N-(2-pyrrolidin-1-ylethyl)acetamide], the figure is at least 10000 nM; as for `Cc1nc(-c2ccncc2)nn1CCN(CCN(C)C)C(=O)Cc1cccc2ccccc12` [Entry 170, N-[2-(dimethylamino)ethyl]-N-[2-(5-methyl-3-pyridin-4-yl-1H-1,2,4-triazol-1-yl)ethyl]-2-naphthalen-1-ylacetamide], 1000 to 10000 nM; as for `Cc1nc(-c2ccncc2)nn1CCN(C(=O)Cc1cccc2ccccc12)C1CCOCC1` [Entry 171, N-[2-(5-methyl-3-pyridin-4-yl-1H-1,2,4-triazol-1-yl)ethyl]-2-naphthalen-1-yl-N-(tetrahydro-2H-pyran-4-yl)acetamide], 50 to 1000 nM.
As for `Cc1nc(-c2ccnc(NCc3ccccc3)c2)nn1CCN(C(=O)Cc1cccc2ccccc12)C1CCCC1` [Entry 172, N-cyclopentyl-N-[2-(5-methyl-3-{2-[(phenylmethyl)amino]pyridin-4-yl}-1H-1,2,4-triazol-1-yl)ethyl]-2-naphthalen-1-ylacetamide], the figure is 50 to 1000 nM; as for `CCCCNc1cc(-c2nc(C)n(CCN(C(=O)Cc3cccc4ccccc34)C3CCCC3)n2)ccn1` [Entry 173, N-(2-{3-[2-(butylamino)pyridin-4-yl]-5-methyl-1H-1,2,4-triazol-1-yl}ethyl)-N-cyclopentyl-2-naphthalen-1-ylacetamide], below 50 nM.
The same measure for `Cc1nc(-c2ccnc(NCCN3CCOCC3)c2)nn1CCN(C(=O)Cc1cccc2ccccc12)C1CCCC1` [Entry 174, N-cyclopentyl-N-[2-(5-methyl-3-{2-[(2-morpholin-4-ylethyl)amino]pyridin-4-yl}-1H-1,2,4-triazol-1-yl)ethyl]-2-naphthalen-1-ylacetamide]: below 50 nM; for `COCCNc1cc(-c2nc(C)n(CCN(C(=O)Cc3cccc4ccccc34)C3CCCC3)n2)ccn1` [Entry 175, N-cyclopentyl-N-{2-[5-methyl-3-(2-{[2-(methyloxy)ethyl]amino}pyridin-4-yl)-1H-1,2,4-triazol-1-yl]ethyl}-2-naphthalen-1-ylacetamide]: below 50 nM.
In the case of `Cc1nc(-c2ccnc(N)c2)nn1CCN(C(=O)Cc1cccc2ccccc12)C1CCCC1` [Entry 176, N-{2-[3-(2-aminopyridin-4-yl)-5-methyl-1H-1,2,4-triazol-1-yl]ethyl}-N-cyclopentyl-2-naphthalen-1-ylacetamide], the half-maximal inhibitory concentration (IC50) was below 50 nM.
Compound `Cc1nc(-c2ccncc2)nn1CCN(C(=O)Cc1cccc2ccccc12)C(C)C` [Entry 177, N-(1-methylethyl)-N-[2-(5-methyl-3-pyridin-4-yl-1H-1,2,4-triazol-1-yl)ethyl]-2-naphthalen-1-ylacetamide] returned an IC50 below 50 nM.
As for `Cc1nc(-c2ccncc2)nn1CCN(CCN1CCCCC1)C(=O)Cc1cccc2ccccc12` [Entry 178, N-[2-(5-methyl-3-pyridin-4-yl-1H-1,2,4-triazol-1-yl)ethyl]-2-naphthalen-1-yl-N-(2-piperidin-1-ylethyl)acetamide], the figure is at least 10000 nM; as for `Cc1nc(-c2ccncc2)nn1CCN(C(=O)Cc1cccc2ccccc12)C1CCCCC1` [Entry 179, N-cyclohexyl-N-[2-(5-methyl-3-pyridin-4-yl-1H-1,2,4-triazol-1-yl)ethyl]-2-naphthalen-1-ylacetamide], below 50 nM; as for `Cc1nc(-c2ccncc2)nn1CCN(CC1CCCO1)C(=O)Cc1cccc2ccccc12` (stereo not drawn) [Entry 180, N-[2-(5-methyl-3-pyridin-4-yl-1H-1,2,4-triazol-1-yl)ethyl]-2-naphthalen-1-yl-N-(tetrahydrofuran-2-ylmethyl)acetamide], 50 to 1000 nM.
The same measure for `Cc1nc(-c2ccnc(NC3CCCNC3)c2)nn1CCN(C(=O)Cc1cccc2ccccc12)C1CCCC1` (stereo not drawn) [Entry 181, N-cyclopentyl-N-(2-{5-methyl-3-[2-(piperidin-3-ylamino)pyridin-4-yl]-1H-1,2,4-triazol-1-yl}ethyl)-2-naphthalen-1-ylacetamide]: 50 to 1000 nM; for `Cc1nc(-c2ccnc(N[C@@H]3CCNC3)c2)nn1CCN(C(=O)Cc1cccc2ccccc12)C1CCCC1` [Entry 182, N-cyclopentyl-N-[2-(5-methyl-3-{2-[(3R)-pyrrolidin-3-ylamino]pyridin-4-yl}-1H-1,2,4-triazol-1-yl)ethyl]-2-naphthalen-1-ylacetamide]: 50 to 1000 nM; for `Cc1nc(-c2ccnc(NCCN3CCCCC3)n2)nn1CCN(C(=O)Cc1cccc2ccccc12)C1CCCC1` [Entry 183, N-cyclopentyl-N-[2-(5-methyl-3-{2-[(2-piperidin-1-ylethyl)amino]pyrimidin-4-yl}-1H-1,2,4-triazol-1-yl)ethyl]-2-naphthalen-1-ylacetamide]: below 50 nM.
The same measure for `Cc1nc(-c2ccnc(NCc3ccccc3)n2)nn1CCN(C(=O)Cc1cccc2ccccc12)C1CCCC1` [Entry 184, N-cyclopentyl-N-[2-(5-methyl-3-{2-[(phenylmethyl)amino]pyrimidin-4-yl}-1H-1,2,4-triazol-1-yl)ethyl]-2-naphthalen-1-ylacetamide]: 50 to 1000 nM.
